Test results taken from US20250121076A1, “POLYPEPTIDE DRUG CONJUGATE HAVING NOVEL STRUCTURE AND APPLICATION THEREOF” (MEDSHINE DISCOVERY INC., priority 2021, published 2025).
Non-standard residues stand in square brackets, D forms with d. Residues, ends and D or L forms follow the SMILES beside them. *: point of attachment. Dolaproine = CO[C@@H]([C@@H]1CCCN1)[C@@H](C)C(=O)O; Dil = CC[C@H](C)[C@H](NC)[C@@H](CC(=O)O)OC; X1 = C[C@@H](N*)[C@@H](O)c1ccccc1; NMeV = CN[C@H](C(=O)O)C(C)C

Experiments:
[1] = Pharmacokinetic analysis in Cynomolgus macaque plasma; type: in vivo, Cynomolgus macaques; details: MMAE as potential metabolite in plasma after single IV 1 mg/kg acetate salt of PDC_8, Cynomolgus macaques
Method: To test the pharmacokinetics of the compounds of the present invention in Cynomolgus macaques.
(§1) The pharmacokinetic characteristics of the compound after intravenous injection and oral administration were tested in Cynomolgus macaques according to a standard protocol. The compound of the present invention was formulated into a clear solution using 50 mM acetate buffer (pH=5) in 10% sucrose as a vehicle. Two Cynomolgus macaques were given a single intravenous injection of 1 mg/kg of the compound to be tested. Whole blood was collected at time points of 0.083, 0.25, 0.5, 1, 2, 4, 8, and 24 hours after administration to get plasma. The concentration of the compound to be tested and the concentration of its potential metabolite MMAE were analyzed by the LC-MS/MS method, and the pharmacokinetic parameters were calculated by Phoenix WinNonlin software.

[2] = Pharmacokinetic analysis in rat plasma (6.1, 2 mg/kg); type: in vivo, SD rats; details: MMAE as potential metabolite in plasma after single IV 2 mg/kg acetate salt of PDC_8, SD rats
Method: (§2) Experimental purpose: To test the pharmacokinetics of the compounds of the present invention in SD rats.
as §1, with “6.1 The pharmacokinetic” for “The pharmacokinetic”, “tested in rats according to” for “tested in Cynomolgus macaques according to”, “The compound to be tested was formulated” for “The compound of the present invention was formulated”, “vehicle. Two SD rats were given” for “vehicle. Two Cynomolgus macaques were given”, “injection of 2 mg/kg of” for “injection of 1 mg/kg of”

[3] = In vivo pharmacokinetic analysis in mice; set-up: species or system CD-1 mice; details: MMAE as potential metabolite in plasma after single IV 2 mg/kg acetate salt of PDC_8, CD-1 mice
Method: To test the pharmacokinetics of the compounds of the present invention in CD-1 mice
as §1, with “in CD-1 mice” for “in Cynomolgus macaques”, “Two mice” for “Two Cynomolgus macaques”, “of 2” for “of 1”, “pharmacokinetic parameters, such as maximal concentration (Cmax), clearance (Cl), half-life (T1/2), […] (Vdss), and area under the concentration-time curve (AUC0-last),” for “pharmacokinetic parameters”

[4] = Pharmacokinetic analysis in rat plasma at different doses (6.2); type: in vivo, SD rats
Method: as §2
6.2 The pharmacokinetic characteristics of the compound after intravenous injection and oral administration were tested in rats according to a standard protocol. The compound to be tested was formulated into a clear solution using 50 mM acetate buffer (pH=5) in 10% sucrose as a vehicle. Three male SD rats were given a single intravenous injection of 2.5 mg/kg, 3.75 mg/kg, or 5 mg/kg of the compound to be tested. Whole blood was collected at time points of 0.083, 0.25, 0.5, 1, 4, and 24 hours after administration to get plasma. The concentration of the compound to be tested and the concentration of its potential metabolite MMAE were analyzed by the LC-MS/MS method, and the pharmacokinetic parameters were calculated.

[5] = MMAE as potential metabolite after single IV 2.5 mg/kg acetate salt of PDC_8, male SD rats
[6] = MMAE as potential metabolite after single IV 3.75 mg/kg acetate salt of PDC_8, male SD rats
[7] = MMAE as potential metabolite after single IV 5 mg/kg acetate salt of PDC_8, male SD rats

CC[C@H](C)[C@@H]([C@@H](CC(=O)N1CCC[C@H]1[C@H](OC)[C@@H](C)C(=O)N[C@H](C)[C@@H](O)c1ccccc1)OC)N(C)C(=O)[C@@H](NC(=O)[C@@H](NC)C(C)C)C(C)C [MMAE, monomethyl auristatin E] (H-[NMeV]V[Dil][Dolaproine]-X1)
AUC0-last [1]: 0.0288 µM·h | Cmax [1]: 5.6 nM | AUC0-last [2]: 0.0374 µM·h | Cmax [2]: 23.5 nM | AUC0-last [3]: 0.0515 µM·h | Cmax [3]: 55 nM | AUC0-last [4, 5]: 0.058 µM·h | Cmax [4, 5]: 29 nM | AUC0-last [4, 6]: 0.185 µM·h | Cmax [4, 6]: 39 nM | AUC0-last [4, 7]: 0.435 µM·h | Cmax [4, 7]: 52 nM
